Measurements as given in publication PMC3397391 (Chemistry & biology, 2012).

Tested on: cultured P. falciparum
Experiment: Cell culture inhibition assay, cultured parasites
Format: cell-based, Plasmodium falciparum
Details: in the presence of hypoxanthine; data not shown

## O=c1[nH]cnc2c([C@@H]3N[C@H](COP(=O)(O)O)[C@@H](O)[C@H]3O)c[nH]c12 [ImmHP, Immucillin-H 5′-phosphate]
  activity against cultured P. falciparum: lacks activity
